According to the supplement of paper PMC10307832:

Tests used:
Test in all cases: relative viability (nuclei count vs DMSO), 5 days (fraction); higher = more cells survive
Vismodegib = compound: CS(=O)(=O)c1ccc(C(=O)Nc2ccc(Cl)c(-c3ccccn3)c2)c(Cl)c1 [Vismodegib]
Procedure, shortened: (§1)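 Only plates meeting two conditions passed: control CV below 25% and at least one doubling. Lung cancer cell lines, kept overnight at 37 °C in 1536-well plates, were pinned with five library-drug doses (not always all listed) √10 apart on vehicle-anchored plates and grown 5 days without medium change. A one-step fix, permeabilisation and Hoechst stain preceded 4× imaging and MetaXpress nuclear counting. Viability equals treated-well nuclei divided by vehicle-well nuclei, as the median over plates.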

Ruxolitinib = compound: N#CC[C@H](C1CCCC1)n1cc(-c2ncnc3[nH]ccc23)cn1 [Ruxolitinib]
Procedure, shortened: as §1

VE-821 = compound: CS(=O)(=O)c1ccc(-c2cnc(N)c(C(=O)Nc3ccccc3)n2)cc1 [VE-821]
Procedure, shortened: as §1

Ruxolitinib + Bortezomib = compound: N#CC[C@H](C1CCCC1)n1cc(-c2ncnc3[nH]ccc23)cn1 [Ruxolitinib] + CC(C)C[C@H](NC(=O)[C@H](Cc1ccccc1)NC(=O)c1cnccn1)B(O)O [Bortezomib] (partner 0.002 µM)
Procedure, shortened: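 Relative viability divides the nuclei count in treated wells by that in vehicle wells. Lung cancer cell lines were seeded in 1536-well plates, dosed by pin tool the next day, and fixed and stained after 5 days in one step with final 0.05% Triton X-100, 1% formaldehyde and 1 ug/ml Hoechst. Dosing was a single drug or a fixed anchor-drug dose plus five library-drug doses (not always all listed) in √10 steps, and values are medians of duplicate plates imaged at 4×.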

Cell Line: UMC-11
- relative viability (Vismodegib; 0.08 µM): 0.897
- relative viability (Vismodegib; 0.253 µM): 0.919
- relative viability (Vismodegib; 0.8 µM): 1
- relative viability (Vismodegib; 2.53 µM): 0.947
- relative viability (Vismodegib; 8 µM): 0.834
- relative viability (Ruxolitinib; 0.08 µM): 0.954
- relative viability (Ruxolitinib; 0.253 µM): 0.999
- relative viability (Ruxolitinib; 0.8 µM): 1.1
- relative viability (Ruxolitinib; 2.53 µM): 1.13
- relative viability (Ruxolitinib; 8 µM): 1.04
- relative viability (VE-821; 0.08 µM): 1.08
- relative viability (VE-821; 0.253 µM): 0.915
- relative viability (VE-821; 0.8 µM): 0.948
- relative viability (VE-821; 2.53 µM): 1.04
- relative viability (VE-821; 8 µM): 0.531
- relative viability (Ruxolitinib + Bortezomib; first compound 0.08 µM): 0.696
- relative viability (Ruxolitinib + Bortezomib; first compound 0.253 µM): 0.983
- relative viability (Ruxolitinib + Bortezomib; first compound 0.8 µM): 0.929
- relative viability (Ruxolitinib + Bortezomib; first compound 2.53 µM): 0.715
- relative viability (Ruxolitinib + Bortezomib; first compound 8 µM): 0.706
